The values that follow come from ChEMBL document CHEMBL5104092, “An insight into the recent development of the clinical candidates for the treatment of malaria and their target proteins” (Eur J Med Chem, 2021).

Each structure is given as a SMILES string. Converted amounts (≈) assume the structure as drawn. A value given as a limit tells only on which side of the number the result lay.

For series [1], the system named is Plasmodium falciparum. Put plainly: Antimalarial activity against chloroquine resistant Plasmodium falciparum K1 incubated for 72 hrs by malaria SYBR green I nucleic acid staining dye based fluorescence assay. The series is classed as functional, organism-based. The following applies: K1, 72 h.
The test system of series [2] is Plasmodium falciparum. Description: Antimalarial activity against chloroquine sensitive Plasmodium falciparum 3D7 incubated for 72 hrs by malaria SYBR green I nucleic acid staining dye based fluorescence assay. The format is functional, organism-based. The following applies: 3D7, 72 h.
A short description of series [3]: Drug elimination in human urine assessed as unchanged fraction. The format is ADME. The following applies: read-out: Drug excretion.
The test system of series [4] is Plasmodium falciparum. Description: Antimalarial activity against multidrug resistant Plasmodium falciparum Dd2 incubated for 72 hrs by malaria SYBR green I nucleic acid staining dye based fluorescence assay. The format is functional, organism-based. Conditions: Dd2, 72 h.
Series [5] can be described thus: Inhibition of Plasmodium falciparum DHODH.
Series [6] deals with Plasmodium falciparum. Put plainly: Antimalarial activity against chloroquine resistant Plasmodium falciparum Dd2 incubated for 48 hrs by SYBR green I fluorescence based assay. The format is functional, organism-based. The following applies: Dd2, 48 h.
The test system of series [7] is Plasmodium falciparum. Put plainly: Antimalarial activity against chloroquine resistant Plasmodium falciparum K1 incubated for 48 hrs by SYBR green I fluorescence based assay. The format is functional, organism-based. Conditions: K1, 48 h.
Series [8] relates to Plasmodium falciparum. Description: Antimalarial activity against chloroquine sensitive Plasmodium falciparum NF54 incubated for 48 hrs by SYBR green I fluorescence based assay. Conditions: NF54, 48 h. The series is classed as functional, organism-based.
The test system of series [9] is Plasmodium falciparum. Description: Antimalarial activity against chloroquine resistant Plasmodium falciparum W2 incubated for 48 hrs by SYBR green I fluorescence based assay. The format is functional, organism-based. The following applies: W2, 48 h.
In series [10] the test system is Plasmodium falciparum. Description: Antimalarial activity against chloroquine-sensitive Plasmodium falciparum 3D7 by Giemsa staining method. The series is classed as functional, organism-based.
Series [11] relates to Plasmodium falciparum. Description: Antimalarial activity against Plasmodium falciparum NF54. The format is functional, organism-based.
Series [12] deals with Plasmodium falciparum. Description: In vivo antimalarial activity against Plasmodium falciparum infected in SCID mouse. The format is functional.
Series [13] addresses Voltage-gated inwardly rectifying potassium channel KCNH2 (Homo sapiens, UniProt Q12809). Description: Inhibition of human ERG. The series is classed as toxicity.
The subject of series [14] is Plasmodium falciparum. Description: Antimalarial activity against Plasmodium falciparum K1. The series is classed as functional, organism-based.
Series [15] is described as follows: Inhibition of Plasmodium vivax DHODH.
The target of the next series is CYP450 (Homo sapiens, UniProt P04798+P05177+P05181+P08684+P10632+P10635+P11509+P11712+P13584+P20813+P20815+P20853+P24462+P24903+P33260+P33261+P51589+P78329+P98187+Q02928+Q08477+Q16678+Q16696+Q5TCH4+Q6VVX0+Q7Z449+Q8TAV3+Q96SQ9+Q9HB55). Description: Inhibition of CYP450 (unknown origin). The format is ADME, protein assay.
A short description of series [16]: Dissociation constant, pKa of compound. The format is physicochemical.
In a further series the test system is HepG2. Description: Cytotoxicity against human HepG2 cells. The format is functional, cell-based.
The test system of series [17] is Plasmodium falciparum. Description: Antimalarial activity against Plasmodium falciparum 3D7. The series is classed as functional, organism-based.
Series [18] has as its system Plasmodium falciparum. Description: Antimalarial activity against Plasmodium falciparum Dd2. The format is functional, organism-based.
Series [19] in a line: Inhibition of Plasmodium vivax PI4K.

Chain of Voltage-gated inwardly rectifying potassium channel KCNH2 (Q12809 whole entry): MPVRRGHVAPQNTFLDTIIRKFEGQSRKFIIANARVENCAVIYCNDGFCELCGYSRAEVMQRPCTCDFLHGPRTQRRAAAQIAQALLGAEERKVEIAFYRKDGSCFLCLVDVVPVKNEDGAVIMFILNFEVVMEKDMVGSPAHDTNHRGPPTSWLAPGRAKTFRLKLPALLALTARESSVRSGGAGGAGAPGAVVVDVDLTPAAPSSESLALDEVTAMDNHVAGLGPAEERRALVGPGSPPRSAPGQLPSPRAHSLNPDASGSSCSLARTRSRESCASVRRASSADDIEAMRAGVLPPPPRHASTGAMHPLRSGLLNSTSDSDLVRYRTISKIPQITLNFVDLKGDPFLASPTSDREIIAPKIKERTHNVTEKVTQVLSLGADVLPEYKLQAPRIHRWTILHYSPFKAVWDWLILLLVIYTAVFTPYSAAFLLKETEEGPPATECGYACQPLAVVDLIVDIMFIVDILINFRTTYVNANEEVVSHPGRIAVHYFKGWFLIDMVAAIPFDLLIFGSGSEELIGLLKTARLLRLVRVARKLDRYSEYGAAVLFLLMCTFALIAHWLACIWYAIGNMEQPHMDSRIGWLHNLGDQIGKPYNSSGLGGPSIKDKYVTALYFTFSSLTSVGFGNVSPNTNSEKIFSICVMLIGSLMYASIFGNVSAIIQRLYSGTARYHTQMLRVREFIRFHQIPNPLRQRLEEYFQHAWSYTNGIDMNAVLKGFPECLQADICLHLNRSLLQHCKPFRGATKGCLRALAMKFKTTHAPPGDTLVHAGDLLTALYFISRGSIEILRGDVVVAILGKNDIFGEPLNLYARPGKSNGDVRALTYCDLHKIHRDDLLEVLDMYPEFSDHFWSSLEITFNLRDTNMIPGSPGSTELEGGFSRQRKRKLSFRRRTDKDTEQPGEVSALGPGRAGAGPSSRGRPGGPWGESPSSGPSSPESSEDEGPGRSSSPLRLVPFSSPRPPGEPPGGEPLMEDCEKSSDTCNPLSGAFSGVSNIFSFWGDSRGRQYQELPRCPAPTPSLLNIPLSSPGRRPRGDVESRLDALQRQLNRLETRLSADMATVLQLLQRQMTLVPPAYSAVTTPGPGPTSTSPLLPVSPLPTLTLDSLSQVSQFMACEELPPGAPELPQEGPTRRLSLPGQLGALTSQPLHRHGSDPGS

A word on the IC50: it is the concentration that gives 50% inhibition. A low value points to greater potency. Turning to `CC1CCN(C[C@@H](CC2CCCCC2)Nc2ccnc3cc(Cl)ccc23)CC1`, the values for the IC50 with Plasmodium falciparum [1] and in the series on Plasmodium falciparum [2] were 7 nM and 938 nM, respectively.

As for `COc1cc(NC(C)CCCN)c2ncccc2c1` (centres undefined) [PRIMAQUINE], the dose excreted in series [3] is less than 1%.

With `CC1CCCN(C[C@H](C)Nc2ccnc3cc(Cl)ccc23)C1` (some centres undefined), the values for the IC50 with Plasmodium falciparum [1] and in the series with Plasmodium falciparum [2] were 21 nM and 14 nM, respectively.

The term EC50 denotes the midpoint of the concentration-response curve. Lower therefore signals greater potency. `CCN(CC)CCCC(C)Nc1ccnc2cc(Cl)ccc12` (centres undefined) [CHLOROQUINE] came in with an EC50 in the series on Plasmodium falciparum [4] of 165 nM.

As to `COc1cc(NCCCCCNC(C)C)c2ncccc2c1` [PENTAQUINE], in [3], the dose excreted was less than 1%.

As to `NN1CN(c2ccc3ccccc3c2)C2=C(C(=O)CO2)C1=O`, the midpoint of inhibition in [5], the IC50, lay at 23 nM.

On to `C[C@H]1[C@H](N2CCNCC2)O[C@@H]2O[C@]3(C)CC[C@H]4[C@H](C)CC[C@@H]1[C@@]24OO3`, for which the 50% inhibitory concentration (IC50) turned out to be 1.7 nM in the series on Plasmodium falciparum [6], 1.9 nM in the series with Plasmodium falciparum [7], 3.1 nM in the series on Plasmodium falciparum [8] and 1.4 nM in the series on Plasmodium falciparum [9].

`CNNc1nc(NNC)nc(Nc2nc(-c3ccc(Cl)cc3Cl)cs2)n1`: in the series on Plasmodium falciparum [10], the IC50 was 10 µg/mL (≈ 24.3 µM).

Turning to `COc1cc(NCCCC(C)N)c2ncccc2c1` (centres undefined) [QUINOCIDE], in [3], the dose excreted was less than 1%.

Take `Cc1cc(Nc2ccc(S(F)(F)(F)(F)F)cc2)n2nc(C(C)(F)F)nc2n1` [DSM-265]: the IC50 in the series on Plasmodium falciparum [11] was 1.8 nM; in series [13], 1660 nM; in the series with Plasmodium falciparum [14], 2.6 nM; in series [15] it was 48.1 nM; at CYP450 it was greater than 10 µg/mL. In the series with Plasmodium falciparum [12], this compound showed an ED90 of 3 mg/kg.

A word on the pKa: it is the negative logarithm of the acid dissociation constant. Low values mean a stronger acid or weaker base, high ones a weaker acid or stronger base. With `O=C(c1ccc(OC[C@H](O)Cn2ncnn2)cc1)N1CC[C@H](c2ccc(F)cc2)C1`, the pKa in series [16] came to 12.6.

With `CC(C)(C)c1cc(O)c(CN)c(C(C)(C)C)c1`, the results for the IC50 with Plasmodium falciparum [11] and in the series on Plasmodium falciparum [14] were 91.5 nM and 9.6 nM, respectively. In addition, the pKa in series [16] was determined as 7.2.

Turning to `FC1CCN(CCOc2ccc(C3CCC4(CC3)OOC3(OO4)C4CC5CC(C4)CC3C5)cc2)CC1` (centres undefined), the concentration for half-maximal inhibition (IC50) is 5.2 nM in the series on Plasmodium falciparum [11], 4.2 nM with Plasmodium falciparum [14] and greater than 20000 nM against CYP450. The ED90 in the series with Plasmodium falciparum [12] stood at 11 mg/kg. This compound also showed a pKa in series [16] of 8.4.

Regarding `C[C@H]1[C@H](Nc2ccc(F)cc2)O[C@@H]2O[C@]3(C)CC[C@H]4[C@H](C)CC[C@@H]1[C@@]24OO3`, the 50% inhibitory concentration (IC50) came to 11.1 nM in the series with Plasmodium falciparum [6], 0.6 nM with Plasmodium falciparum [7], 1.3 nM in the series with Plasmodium falciparum [8] and 3 nM with Plasmodium falciparum [9].

A word on the CC50: it is the concentration giving 50% cytotoxicity. Low values mean harm at low concentration, high ones better tolerance by the cells. In the series on HepG2, `COc1ccc(NC(=O)N2CCCCN3[C@H](CN(C)C)[C@H](c4ccc(C#Cc5ccccc5)cc4)[C@@H]3C2)cc1` showed a CC50 of 9000 nM. The 50% inhibitory concentration (IC50) in series [13] amounted to 2100 nM. The EC50 was 9 nM in the series on Plasmodium falciparum [17] and 3 nM with Plasmodium falciparum [18]. The compound further had a pKa in series [16] of 5.

In the series with Plasmodium falciparum [10], `O=[N+]([O-])c1cccc(-c2csc(Nc3nc(NNc4ccccc4)nc(NNc4ccccc4)n3)n2)c1` had a 50% inhibitory concentration (IC50) of 11.3 µg/mL (≈ 22 µM).

With `CCN(CC)CCCC(C)Nc1cc(OC)cc2cccnc12` (centres undefined) [PAMAQUINE], the dose excreted in [3] is less than 1%.

Regarding `CC(=O)N1CCN(c2ccc(CN(C(=O)/C=C/c3ccc(C(C)(C)C)cc3)[C@@H](Cc3ccccc3)C(=O)N3CCN(Cc4ccc(C#N)cc4)CC3)cc2)CC1`, the half-inhibitory concentration (IC50) came out at 0.4 nM in the series on Plasmodium falciparum [11] and 0.3 nM in the series on Plasmodium falciparum [14]. Further, in the series on Plasmodium falciparum [12], the ED90 turned out to be 3.7 mg/kg. This compound also came in with a pKa in [16] of 6.8.

For `Cc1nc(Nc2ncc(N3CCN(C)[C@H](C)C3)c(Nc3cc(C)n(C)n3)n2)cc(C2CC2)c1F` [SUTIDIAZINE], the 50% inhibitory concentration (IC50) with Plasmodium falciparum [11] worked out at 9 nM; with Plasmodium falciparum [14], 15 nM. The compound further showed a pKa in series [16] of 8.4.

Take `c1cc([C@H]2CC[C@]3(CC2)OO[C@]2(O3)C3CC4CC(C3)CC2C4)ccc1OCCN1CCOCC1` [ARTEFENOMEL]: the IC50 in the series on Plasmodium falciparum [11] was 4.6 nM; in the series with Plasmodium falciparum [14], 3.8 nM. Besides, in series [16], the pKa is 7.

With `COC(=O)N1CCN(C(=N)c2cccc(NC(=O)Nc3ccc(S(=O)(=O)NCc4ccc(S(N)(=O)=O)cc4)cc3)c2)CC1`, the half-maximal effective concentration (EC50) with Plasmodium falciparum [11] amounted to 2 nM; with Plasmodium falciparum [14], 5 nM.

The compound `CS(=O)(=O)c1ccc(-c2cnc(N)c(-c3ccc(C(F)(F)F)nc3)c2)cc1` [MMV-048] showed a concentration for half-maximal inhibition (IC50) in [19] of 3.4 nM. Further, the ED90 in the series on Plasmodium falciparum [12] came to 0.57 mg/kg.
